Columns and labels:
[1] = tested on: ERK; experiment: RT112/84 in vivo pERK inhibition (tumor lysates, MSD); details: RT112/84 tumor bearing NSG mice; pemigatinib 1 mg/kg oral, EV 3 mg/kg intravenous; tumors collected 4 h post dose
Description: Tumors were then processed and levels of phospho ERK were assessed on tumor lysates by MSD (Mesoscale).

[2] = tested on: Nectin-4; experiment: RT112/84 in vitro Nectin-4 receptor density (flow cytometry); assay type: cell-based; details: RT112/84 cells; 100 nM pemigatinib, 100 nM EV or both; different time points after treatment
Description: The effect of combining pemigatinib plus enfortumab vedotin (“EV”) (Padcev, Refdrug Inc.) on Nectin-4 receptor density was assessed in vitro in the RT112/84 bladder cancer cell line. Briefly, RT112/84 cells were treated with either 100 nM pemigatinib, 100 nM EV, or the combination of both. The receptor density of Nectin-4 was then assessed by flow cytometry upon a LSRFortessa X-20 instrument (BD Biosciences) with Quantibrite phycoerythrin (PE) beads (BD Biosciences Cat No 340495) using an anti-Nectin-4 PE conjugated antibody (RnD Systems Cat No FAB2659) at different time points after treatment (FIG. 2A).

[3] = tested on: UM-UC-14 cancer xenograft model; experiment: UM-UC-14 xenograft model, tumor growth; assay type: in vivo, mice; details: single agent
[4] = tested on: RT112/84 bladder cancer xenograft model; experiment: RT112/84 xenograft model, tumor growth (6 groups); assay type: in vivo, mice
Description: The in vivo effect of combining pemigatinib plus EV (Padcev, Refdrug Inc.) was assessed in the RT112/84 bladder cancer (85061106, Sigma/ECACC, UK) xenograft model (FIG. 4) in 6 to 8 weeks old NSG mice (Jackson laboratories). Pemigatinib was suspended in 5% N,N-dimethyl acetamide (DMAC)+50 mM Citrate buffer in 0.5% methyl cellulose for oral administration and EV was suspended in saline for intravenous administration. Briefly, the left flank of the mice were shaved the day prior to subcutaneous inoculation with 2×10^6 RT112/84 suspended in matrigel (Corning Life Sciences, Tewksbury, Mass.). On day 7, tumor dimensions were measured by Vernier calipers, and volume estimated by the formula Volume=[L (long dimension)×W2 (short dimension)]/2. Mice were randomized into 6 groups of 10 mice of approximate mean volume (˜200 mm^3). Tumors were measured 3 times per week for the duration of the study. Starting day 7, mice were dosed with (i) vehicle; (ii) 0.3 mg/kg of pemigatinib; (iii) 1 mg/kg of pemigatinib; (iv) 3 mg/kg of EV; (v) 0.3 mg/kg of pemigatinib and 3 mg/kg of EV; or (vi) 1 mg/kg of pemigatinib and 3 mg/kg of EV. Pemigatinib was administered orally once daily (QD) for 10 days, while EV was dosed every 4 days (for a total of 2 doses).

[5] = tested on: Nectin-4; experiment: RT112/84 in vivo Nectin-4 receptor density (xenograft, flow cytometry); details: RT112/84 tumor bearing NSG mice; pemigatinib 0.3 or 1 mg/kg oral, EV 3 mg/kg intravenous; tumors collected 4 h post dose
Description: The effect of combining pemigatinib plus EV (Padcev, Refdrug Inc.) on Nectin-4 receptor density was also assessed in vivo in the RT112/84 bladder cancer xenograft model (FIG. 2B) in 6 to 8 weeks old NSG mice (Jackson laboratories). Pemigatinib was suspended in 5% N,N-dimethyl acetamide (DMAC)+50 mM Citrate buffer in 0.5% methyl cellulose for oral administration and EV was suspended in saline for intravenous administration. Briefly, the left flanks of the mice were shaved the day prior to subcutaneous inoculation with 2×10^6 RT112/84 suspended in matrigel (Corning Life Sciences, Tewksbury, Mass.). On day 16, mice were dosed with (i) vehicle; (ii) 0.3 mg/kg of pemigatinib; (iii) 1 mg/kg of pemigatinib; (iv) 3 mg/kg of EV; (v) 0.3 mg/kg of pemigatinib and 3 mg/kg of EV; or (vi) 1 mg/kg of pemigatinib and 3 mg/kg of EV, and tumors were collected 4 h post dose.

[6] = pemigatinib 0.3 mg/kg oral QD for 10 days
[7] = pemigatinib 1 mg/kg oral QD for 10 days

## CCN1C(=O)N(c2c(F)c(OC)cc(OC)c2F)Cc2cnc3[nH]c(CN4CCOCC4)cc3c21 [pemigatinib, 3-(2,6-difluoro-3,5-dimethoxyphenyl)-1-ethyl-8-(morpholin-4-ylmethyl)-1,3,4,7-tetrahydro-2H-pyrrolo[3′,2′:5,6]pyrido[4,3-d]pyrimidin-2-one]
[1]
  phosphorylation of ERK in tumor: decrease phosphorylation of ERK
[2]
  Nectin-4 receptor density: did not induce changes in Nectin-4 receptor density
[3]; [6]
  therapeutic effect in delaying tumor growth vs vehicle: only pemigatinib 1 mg/kg treatment had a therapeutic effect
[3]; [7]
  therapeutic effect in delaying tumor growth vs vehicle: had a therapeutic effect in delaying tumor growth as single agent
[4]; [6]
  therapeutic effect in delaying tumor growth vs vehicle: all the treatments, with the exemption of pemigatinib 0.3 mg/kg, had a therapeutic effect
[4]; [7]
  therapeutic effect in delaying tumor growth vs vehicle: had a therapeutic effect in delaying tumor growth
[5]
  Nectin-4 receptor density in tumor cells: did not induce changes in Nectin-4 receptor density

Reference: patent publication US12065494B2, “Combination therapy comprising an FGFR inhibitor and a Nectin-4 targeting agent” (Incyte Corporation, priority 2021, dated 2024)
